In patent publication US12617783B2, “Heterocyclic GLP-1R agonists” (BIOMEA FUSION, INC., priority 2024, dated 2026):
pEC50: −log10 of the molar value.

What follows are molecules tested against T1, human GLP-1R (Homo sapiens, UniProt P43220) (assay: GLP-1R cAMP assay (Example B1a, HTRF, 30 min at room temperature)). Conditions: cAMP accumulation in HEK293 expressing human GLP-1R, no BETP, 30 min room temperature (Method B1a, compounds ID 1-609), Table 1; read-out: EC50.
T1 construct: host or cells: HEK293
Format: cell-based
In short: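 Competitive HTRF read-out of cAMP after 30 min room-temperature stimulation, BETP absent, of human GLP-1R-HEK293 cells (1,000/well) in HEPES buffer with 500 μM IBMX and 0.1% BSA. Activation normalised to GLP-1(7-37) positive control. EC50 from 4-parameter non-linear regression.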

T1 sequence (P43220 24-463): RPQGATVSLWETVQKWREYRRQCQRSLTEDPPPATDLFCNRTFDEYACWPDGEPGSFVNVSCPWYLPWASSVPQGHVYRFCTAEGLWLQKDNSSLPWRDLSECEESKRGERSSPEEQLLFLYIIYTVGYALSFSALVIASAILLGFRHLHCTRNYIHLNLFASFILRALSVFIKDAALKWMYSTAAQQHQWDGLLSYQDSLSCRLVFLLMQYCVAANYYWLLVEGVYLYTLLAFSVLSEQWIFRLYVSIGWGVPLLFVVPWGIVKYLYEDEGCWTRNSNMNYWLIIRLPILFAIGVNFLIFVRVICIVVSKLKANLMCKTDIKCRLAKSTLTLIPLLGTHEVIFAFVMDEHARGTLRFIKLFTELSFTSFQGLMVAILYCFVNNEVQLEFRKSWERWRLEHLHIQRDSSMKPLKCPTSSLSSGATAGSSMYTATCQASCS

Structure (SMILES)	pEC50
Cc1cc(-n2nc3c(c2-c2ncn(-c4ccc5c(cnn5C)c4F)c2C)[C@H](C)N(C(=O)c2cc4cc(N5C6CCC5COC6)ccc4n2C2(c4noc(=O)[nH]4)CC2)CC3)cc(C)c1F [Compound 107, 3-[1-[2-[(4S)-2-(4-fluoro-3,5-dimethyl-phenyl)-3-[1-(4-fluoro-1-methyl-indazol-5-yl)-5-methyl-imidazol-4-yl]-4-methyl-6,7-dihydro-4H-pyrazolo[4,3-c]pyridine-5-carbonyl]-5-(3-oxa-8-azabicyclo[3.2.1]octan-8-yl)indol-1-yl]cyclopropyl]-4H-1,2,4-oxadiazol-5-one]	< 5.00
Cc1cc(-n2nc3c(c2-n2ccn(-c4ccc(C(N)=O)c(F)c4)c2=O)[C@@H]2CC[C@H](C3)N2C(=O)c2cc3cc([C@H]4CCOC(C)(C)C4)ccc3n2C2(c3noc(=O)[nH]3)CC2)cc(C)c1F [Compound 117, 4-[3-[(1S,8R)-11-[5-[(4S)-2,2-dimethyltetrahydropyran-4-yl]-1-[1-(5-oxo-4H-1,2,4-oxadiazol-3-yl)cyclopropyl]indole-2-carbonyl]-4-(4-fluoro-3,5-dimethyl-phenyl)-4,5,11-triazatricyclo[6.2.1.02,6]undeca-2,5-dien-3-yl]-2-oxo-imidazol-1-yl]-2-fluoro-benzamide]	< 5.00
Cc1cc(-n2nc3c(c2-n2ccn(-c4ccc5c(cnn5C)c4F)c2=O)[C@@H]2CCC[C@H](C3)N2C(=O)c2c(C)c3cc([C@H]4CCOC(C)(C)C4)ccc3n2[C@@]2(c3noc(=O)[nH]3)C[C@@H]2C)cc(C)c1F [Compound 537, 3-[(1S,2S)-1-[5-[(4S)-2,2-dimethyltetrahydropyran-4-yl]-2-[(1S,8R)-4-(4-fluoro-3,5-dimethyl-phenyl)-3-[3-(4-fluoro-1-methyl-indazol-5-yl)-2-oxo-imidazol-1-yl]-4,5,12-triazatricyclo[6.3.1.02,6]dodeca-2,5-diene-12-carbonyl]-3-methyl-indol-1-yl]-2-methyl-cyclopropyl]-4H-1,2,4-oxadiazol-5-one]	5.87
Cc1cc(-n2nc3c(c2-n2ccn(-c4ccc5c(cnn5C)c4F)c2=O)[C@@H]2CCC[C@H](C3)N2S(=O)(=O)c2cc3cc([C@H]4CCOC(C)(C)C4)ccc3n2C2(c3noc(=O)[nH]3)C[C@@H]2C)cc(C)c1F (stereo partly drawn) [Compound 527, 3-[(2S)-1-[5-[(4S)-2,2-dimethyltetrahydropyran-4-yl]-2-[[(1S,8R)-4-(4-fluoro-3,5-dimethyl-phenyl)-3-[3-(4-fluoro-1-methyl-indazol-5-yl)-2-oxo-imidazol-1-yl]-4,5,12-triazatricyclo[6.3.1.02,6]dodeca-2,5-dien-12-yl]sulfonyl]indol-1-yl]-2-methyl-cyclopropyl]-4H-1,2,4-oxadiazol-5-one]	6.01
Cc1cc(-n2nc3c(c2-n2ccn(-c4ccc5c(cnn5C)c4F)c2=O)[C@@H]2CC[C@H](C3)N2C(=O)c2cc3cc([C@@H]4CCOC(C)(C)C4)ncc3n2[C@@]2(c3noc(=O)[nH]3)C[C@@H]2C)cc(C)c1F [Compound 212, 3-((1S,2S)-1-(5-((R)-2,2-dimethyltetrahydro-2H-pyran-4-yl)-2-((4S,7R)-3-(3-(4-fluoro-1-methyl-1H-indazol-5-yl)-2-oxo-2,3-dihydro-1H-imidazol-1-yl)-2-(4-fluoro-3,5-dimethylphenyl)-2,4,5,6,7,8-hexahydro-4,7-epiminocyclohepta [c]pyrazole-9-carbonyl)-1H-pyrrolo[2,3-c]pyridin-1-yl)-2-methylcyclopropyl)-1,2,4-oxadiazol-5 (4H)-one]	6.16
Cc1cc(-n2nc3c(c2-n2ccn(-c4ccc5c(cnn5C)c4F)c2=O)[C@@H]2CC[C@H](C3)N2C(=O)c2nc3cc(C4CCOC(C)(C)C4)ccc3n2C2(c3noc(=O)[nH]3)CC2)cc(C)c1F (stereo partly drawn) [Compound 130, 3-[1-[5-(2,2-dimethyltetrahydropyran-4-yl)-2-[(1S,8R)-4-(4-fluoro-3,5-dimethyl-phenyl)-3-[3-(4-fluoro-1-methyl-indazol-5-yl)-2-oxo-imidazol-1-yl]-4,5,11-triazatricyclo[6.2.1.02,6]undeca-2,5-diene-11-carbonyl]benzimidazol-1-yl]cyclopropyl]-4H-1,2,4-oxadiazol-5-one]	< 5.00
Cc1cc(-n2nc3c(c2-n2ccn(-c4ccc5c(cnn5C)c4F)c2=O)[C@@H]2CC[C@H](C3)N2C(=O)c2cc3cc(C4COC(C)(C)C4)ccc3n2[C@@]2(c3noc(=O)[nH]3)C[C@@H]2C)cc(C)c1F (stereo partly drawn) [Compound 418, 3-[(1S,2S)-1-[5-(5,5-dimethyltetrahydrofuran-3-yl)-2-[(1S,8R)-4-(4-fluoro-3,5-dimethyl-phenyl)-3-[3-(4-fluoro-1-methyl-indazol-5-yl)-2-oxo-imidazol-1-yl]-4,5,11-triazatricyclo[6.2.1.02,6]undeca-2,5-diene-11-carbonyl]indol-1-yl]-2-methyl-cyclopropyl]-4H-1,2,4-oxadiazol-5-one]	6.08
Cc1cc(-n2nc3c(c2-n2ccn(-c4ccc5c(cnn5C)c4F)c2=O)[C@@H]2CC[C@H](C3)N2C(=O)c2cc3cc([C@@H]4CCOC5(CC5)C4)ccc3n2[C@]2(c3noc(=O)[nH]3)C[C@@H]2C)cc(C)c1F [Compound 529, 3-[(1R,2S)-1-[2-[(1S,8R)-4-(4-fluoro-3,5-dimethyl-phenyl)-3-[3-(4-fluoro-1-methyl-indazol-5-yl)-2-oxo-imidazol-1-yl]-4,5,11-triazatricyclo[6.2.1.02,6]undeca-2,5-diene-11-carbonyl]-5-[(7R)-4-oxaspiro[2.5]octan-7-yl]indol-1-yl]-2-methyl-cyclopropyl]-4H-1,2,4-oxadiazol-5-one]	≤ 5.00
Cc1cc(-n2nc3c(c2-n2ccn(-c4ccc5c(cnn5C)c4F)c2=O)[C@@H]2CC[C@H](C3)N2C(=O)c2cc3nc(C4CCOC(C)(C)C4)ccc3n2[C@@]2(c3noc(=O)[nH]3)C[C@@H]2C)cc(C)c1F (stereo partly drawn) [Compound 210, 3-[(1S,2S)-1-[5-(2,2-dimethyltetrahydropyran-4-yl)-2-[(1S,8R)-4-(4-fluoro-3,5-dimethyl-phenyl)-3-[3-(4-fluoro-1-methyl-indazol-5-yl)-2-oxo-imidazol-1-yl]-4,5,11-triazatricyclo[6.2.1.02,6]undeca-2,5-diene-11-carbonyl]pyrrolo[3,2-b]pyridin-1-yl]-2-methyl-cyclopropyl]-4H-1,2,4-oxadiazol-5-one]	6.02

Now those with a higher pEC50, led by results:

pEC50	Structure (SMILES)
6.41	Cc1cc(-n2nc3c(c2-n2ccn(-c4ccc5c(cnn5C)c4Cl)c2=O)[C@@H]2COC[C@H](C3)N2C(=O)c2cc3cc(C4CCOC5(CC5)C4)ccc3n2[C@@]2(c3noc(=O)[nH]3)C[C@@H]2C)cc(C)c1F (stereo partly drawn) [Compound 230, 3-[(1S,2S)-1-[2-[(1R,8S)-3-[3-(4-chloro-1-methyl-indazol-5-yl)-2-oxo-imidazol-1-yl]-4-(4-fluoro-3,5-dimethyl-phenyl)-10-oxa-4,5,12-triazatricyclo[6.3.1.02,6]dodeca-2,5-diene-12-carbonyl]-5-(4-oxaspiro[2.5]octan-7-yl)indol-1-yl]-2-methyl-cyclopropyl]-4H-1,2,4-oxadiazol-5-one]
6.51	Cc1cc(-n2nc3c(c2-n2ccn(-c4ccc5c(c4)N(C)C(=O)C54CC4)c2=O)[C@@H]2CCC[C@H](C3)N2C(=O)c2cc3cc([C@H]4CCOC(C)(C)C4)ccc3n2[C@@]2(c3noc(=O)[nH]3)C[C@@H]2C)cc(C)c1F [Compound 545, 3-[(1S,2S)-1-[5-[(4S)-2,2-dimethyltetrahydropyran-4-yl]-2-[(1S,8R)-4-(4-fluoro-3,5-dimethyl-phenyl)-3-[3-(l′-methyl-2′-oxo-spiro[cyclopropane-1,3′-indoline]-6′-yl)-2-oxo-imidazol-1-yl]-4,5,12-triazatricyclo[6.3.1.02,6]dodeca-2,5-diene-12-carbonyl]indol-1-yl]-2-methyl-cyclopropyl]-4H-1,2,4-oxadiazol-5-one]
6.74	Cc1cc(-n2nc3c(c2-n2ccn(-c4ccc5c(cnn5C)c4F)c2=O)[C@@H]2CC[C@H](C3)N2C(=O)c2cc3cc(C4CCOCC4)ccc3n2[C@@]2(c3noc(=O)[nH]3)C[C@@H]2C)cc(C)c1F [Compound 208, 3-((1S,2S)-1-(2-((4S,7R)-3-(3-(4-fluoro-1-methyl-1H-indazol-5-yl)-2-oxo-2,3-dihydro-1H-imidazol-1-yl)-2-(4-fluoro-3,5-dimethylphenyl)-2,4,5,6,7,8-hexahydro-4,7-epiminocyclohepta [c]pyrazole-9-carbonyl)-5-(tetrahydro-2H-pyran-4-yl)-1H-indol-1-yl)-2-methylcyclopropyl)-1,2,4-oxadiazol-5 (4H)-one]
6.87	Cc1cc(-n2nc3c(c2-n2ccn(-c4ccc5c(cnn5C)c4F)c2=O)[C@@H]2CCC[C@H](C3)N2C(=O)c2cc3cc([C@H]4CCOC5(CC5)C4)ccc3n2[C@@]2(c3noc(=O)[nH]3)C[C@@H]2C)cc(C)c1F [Compound 509, 3-((1S,2S)-1-(2-((4S,8R)-3-(3-(4-fluoro-1-methyl-1H-indazol-5-yl)-2-oxo-2,3-dihydro-1H-imidazol-1-yl)-2-(4-fluoro-3,5-dimethylphenyl)-4,5,6,7,8,9-hexahydro-2H-4,8-epiminocycloocta [c]pyrazole-10-carbonyl)-5-((S)-4-oxaspiro[2.5]octan-7-yl)-1H-indol-1-yl)-2-methylcyclopropyl)-1,2,4-oxadiazol-5 (4H)-one]
7.10	Cc1cc(-n2nc3c(c2-n2ccn(-c4ccc5c(cnn5C)c4)c2=O)[C@@H]2CC[C@H](C3)N2C(=O)c2cc3cc([C@H]4CCOC5(CC5)C4)ccc3n2[C@@]2(c3noc(=O)[nH]3)C[C@@H]2C)cc(C)c1F [Compound 323, 3-[(1S,2S)-1-[2-[(1S,8R)-4-(4-fluoro-3,5-dimethyl-phenyl)-3-[3-(1-methylindazol-5-yl)-2-oxo-imidazol-1-yl]-4,5,11-triazatricyclo[6.2.1.02,6]undeca-2,5-diene-11-carbonyl]-5-[(7S)-4-oxaspiro[2.5]octan-7-yl]indol-1-yl]-2-methyl-cyclopropyl]-4H-1,2,4-oxadiazol-5-one]
